In publication PMC8894198, “Biosynthetic Microcin J25 Exerts Strong Antibacterial, Anti-Inflammatory Activities, Low Cytotoxicity Without Increasing Drug-Resistance to Bacteria Target” (Frontiers in Immunology, 2022):
Where a SMILES comes first, the peptide text is derived from it. Bridges are numbered along the chain shown (N, C = ends).

Experiments:
[1] = system: E. coli K88; assay type: cell-based; conditions: sublethal concentrations 0.25 × and 0.5 × MIC
Experimental: Mutation rates were based on rifampicin and refined ([28], [29]). Overnight cultures of E. coli K88 were diluted in 50 mL of LB broth at a ratio of 1:10,000 and grown for 3.5 h at 37°C. […] Eleven 1-mL replicates of each treatment group were grown at 37°C for 24 h. These cultures were then serially diluted and plated on LB agar plates containing 100 μg/mL rifampicin. Afterwards, plates were incubated at 37°C for 48 h. Single colonies on the plates were counted to determine CFU/mL. Mutagenesis rates were calculated using the bz-rates-mutation rate calculator (http://www.lcqb.upmc.fr/bzrates).

[2] = system: cocktail of MDR E. coli strains (521ZQE, AZ1, WWE921A-2) in C57BL/6 J mice; assay: Cocktail of MDR E. coli strains challenge in mice, MccJ25 pretreatment; assay type: in vivo
From the text: 4-week-old C57BL/6 J female mice [initial body weight (BW) 15.23 ± 0.09] were purchased from Charles River Laboratories (Beijing, China) and raised under standard conditions. The producer was described in “Mice Model” section. […] Mice were maintained in a 3-d acclimatization period of time. Afterwards, 36 mice were randomly separated into three experimental groups based on BW: Uninfected group, control; Infected group; MccJ25+infected group, 12 mice per group in four cages, three mice/cage, total of 12 cages. Cocktail of MDR E. coli strains infection producers were performed as our previous described previously ([30]), experimental roadmap was shown in Figure 10A . A single of colony of MDR E. coli strains 521ZQE, AZ1, and WWE921A-2 were incubated in LB medium and grew to stationary stage (OD600 > 3), respectively. All mice were pretreated 0.2 ml PBS (control and infected group) or 0.2 ml PBS containing with 9.1 mg/kg/BW MccJ25 (MccJ25+infected group) for 3 d (once/day) prior to infection. Infected mice and MccJ25+infected mice received 0.2 ml sterile PBS containing 5 × 10^8 cocktail of MDR E. coli strains by oral gavage. The control group still received 0.2 ml of sterile PBS by gavage for 2 d. The concentration of biosynthetic MccJ25 was selected based on our previous study ([24]). After 3 d, mice were euthanized friendly, intestinal tissues, organs and serum were obtained. Fresh fecal, tissues, liver, and spleen were immediately placed on ice (1-2 h) and transported to the laboratory to count the specific bacteria in the laboratory. Serum was kept in -20°C and part of jejunum, colon, and spleen were stored in the -80°C for cytokines analysis.
In the LPS-challenged mice experiment, lifespan of mice was monitored for 72 h. In the cocktail of MDR E. coli strains infection experiment, BW change, rectal temperature, diarrhea scores and fecal image, or survival rate were measured. For the diarrhea score evaluation producer was referred to previous study ([24]).
The 0.1 g fresh jejunum, ileum, proximal colon, feces, liver, and spleen were collected and kept in sterile tubes containing 0.9 ml sterile physiological saline solution. Then, cryogenic lapping instrument (Shanghai Jingxin Industrial Development Co., Ltd., China) was applied to prepare the homogenate. 0.1 mL indicated samples prepared by ten-fold serial dilutions method were plated on indicated antibiotics MacConkey (OXOID, Hampshire, UK) and ChromAgar™ (OXOID, Hampshire, UK) plates. These plates were cultured overnight at 37°C to count colonies. Colony numbers were expressed as log 10 CFU/g of samples. All counts were performed in triplicate. Colonies were observed on the MacConkey agar and ChromAgar plates in the absence of indicated antibiotics, we considered that they were enterobacteria-like bacterium belonging to the class of family Enterobacteriaceae.
Quantification of total bacteria, E. coli, Lactobacillus, and Bifidobacterium was done using PCR. In brief, total microbial DNA from cecal digesta was obtained. The total bacteria, Lactobacillus, Bifidobacterium, E. coli primers were synthesized in Invitrogen (Shanghai, China), which are listed in Table S1 . Standard curves of indicated bacteria were generated based on the construction of standard plasmids containing the 16S rRNA genes. The copy numbers of total bacteria, Lactobacillus, Bifidobacterium, and E. coli were calculated referring to standard curves as described previously ([30]).
The concentrations of tumor necrosis factor-α (TNF-α), interleukin-6 (IL-6), IL-4, interferon (IFN)-γ, and nitric oxide (NO) in serum were measured. In addition, TNF-α and NO levels were also measured in the supernatant of RAW264.7 cells. ELISA was performed using a commercial ELISA kit (eBioscience, San Diego, USA). LPS levels in plasma were analyzed using the QCL-1000 kit (Xiamen, China) based on the manufacturer’s standards. […]

[3] = 9.1 mg/kg/BW oral gavage for 3 d before infection
[4] = ELISA, vs infected group, n = 6
[5] = jejunum, colon and spleen, qPCR, vs infected mice

CC[C@H](C)[C@H](NC(=O)CNC(=O)[C@@H](NC(=O)[C@H](Cc1ccccc1)NC(=O)[C@H](Cc1ccc(O)cc1)NC(=O)[C@@H]1CCC(=O)NCC(=O)NCC(=O)N[C@@H](C)C(=O)NCC(=O)N[C@@H](Cc2c[nH]cn2)C(=O)N[C@@H](C(C)C)C(=O)N2CCC[C@H]2C(=O)N1)C(C)C)C(=O)NCC(=O)N[C@H](C(=O)N1CCC[C@H]1C(=O)N[C@H](C(=O)N[C@@H](CO)C(=O)N[C@@H](Cc1ccccc1)C(=O)N[C@@H](Cc1ccc(O)cc1)C(=O)NCC(=O)O)[C@@H](C)CC)[C@@H](C)O [MccJ25, microcin J25] (GGAGHVPEYFVGIGTPISFYG-OH; lactam N-8 (inferred); C-terminus assumed)
mutation rate compared to the control [1]: did not show a greater difference in mutation rate compared to the control | body weight [2, 3]: increasing BW | diarrhea incidence [2, 3]: decreasing diarrhea incidence | rectal temperature [2, 3]: increasing | lifespan / survival ([2]; 9.1 mg/kg/BW oral gavage once/day for 3 d before infection, n = 12): prolonging the lifespan | serum IL-4 [2, 4]: higher IL-4 | serum proinflammatory cytokines (TNF-α, IFN-γ, IL-6) [2, 4]: lower proinflammatory cytokines | MDR E. coli colonization in liver and spleen ([2]; d 3 after infection, n = 6): effectively reduced the degree of clinically source MDR E. coli colonization and expansion | IL-10 mRNA [2, 5]: high anti-inflammatory cytokine IL-10 | mRNA of proinflammatory indicators (TNF-α, IL-6, IFN-γ, IL-1β, TLR4, NF-κB) [2, 5]: lower proinflammatory indicators | MDR E. coli in the intestines (jejunum, ileum, colon) ([2]; plate counts, d 3 after infection): significantly reduced the number and colonization | copy number of E. coli in cecal contents ([2]; real-time qPCR): sharply decreased the copy number | copy numbers of Lactobacillus, Bifidobacterium in cecal contents ([2]; real-time qPCR): significantly increased the copy numbers | total bacteria copy numbers in cecal contents ([2]; real-time qPCR): no significant difference | bacterial load in the feces ([2]; vs infected group, n = 6): markedly decreased the bacterial load
